Patent publication US20210308110A1, “ANTIVIRAL COMPOUNDS AND METHOD FOR TREATING RNA VIRAL INFECTION, PARTICULARLY COVID-19” (Senhwa Biosciences, Inc., priority 2020, published 2021)

Columns and labels:
SARS-CoV-2 [1] = experiment: SARS-CoV-2 infection of Vero E6 cells, quantified by N protein expression (IFA / PRNT); type: cell-based; conditions: Severe acute respiratory syndrome coronavirus 2, Vero C1008, Vero E6 cells pretreated 20 hr, infected at MOI=0.01 for 2 days, read-out: IC50 (anti-SARS-CoV-2 activity)
in vitro = conditions: African green monkey
SARS-CoV-2 [2] = experiment: SARS-CoV-2 plaque reduction neutralization test, plaque formation; type: cell-based; conditions: at 1.25 μM
[3] = Cell viability test by Cell Counting Kit-8 (CCK-8); conditions: African green monkey
SARS-CoV-2 [4] = experiment: Mouse challenge with SARS-CoV-2, lung histopathology scoring; type: in vivo, AAV/hACE2 C57BL/6 mice; conditions: 50 mg/kg I.P., AAV/hACE2 mice, day 5 post-SARS-CoV-2 infection; score scale 0-5; 2 out of 5

| SMILES | IC50 (SARS-CoV-2 [1]) [µM] | CC50 (in vitro) [µM] | reduction of plaque formation (SARS-CoV-2 [2]) [%] | CC50 [3] [µM] | clinical score of lung histopathology (SARS-CoV-2 [4]) |
| --- | --- | --- | --- | --- | --- |
| CCC(CC)COC(=O)[C@H](C)N[P@](=O)(OC[C@H]1O[C@@](C#N)(c2ccc3c(N)ncnn23)[C@H](O)[C@@H]1O)Oc1ccccc1 [Compound E, Remdesivir, reference compound] | 0.83 | > 5 | – | – | – |
| O=C1NC(=O)/C(=C/c2cnn3c(NC4CC4)cc(Nc4cc(Cl)ccc4F)nc23)N1 [Compound B] | 0.126 | – | 75 | 5.9 | – |
| CC(N)C(=O)OCN1C(=O)N/C(=C\c2cnn3c(NC4CC4)cc(Nc4cc(Cl)ccc4F)nc23)C1=O (stereo not drawn) [Compound C] | 0.097 | – | 75 | 4.21 | – |
| O=C(O)c1ccc2c(c1)nc(Nc1cccc(Cl)c1)c1ccncc12 [Compound A, Silmitasertib] | 2.74 | – | 75 | > 5 | less than 2 |
